How the values were obtained:
DBH = target: T1, DBH (Homo sapiens, UniProt P09172); details: as reported by Runti et al.; cited from earlier work
T1 sequence (P09172 1-617): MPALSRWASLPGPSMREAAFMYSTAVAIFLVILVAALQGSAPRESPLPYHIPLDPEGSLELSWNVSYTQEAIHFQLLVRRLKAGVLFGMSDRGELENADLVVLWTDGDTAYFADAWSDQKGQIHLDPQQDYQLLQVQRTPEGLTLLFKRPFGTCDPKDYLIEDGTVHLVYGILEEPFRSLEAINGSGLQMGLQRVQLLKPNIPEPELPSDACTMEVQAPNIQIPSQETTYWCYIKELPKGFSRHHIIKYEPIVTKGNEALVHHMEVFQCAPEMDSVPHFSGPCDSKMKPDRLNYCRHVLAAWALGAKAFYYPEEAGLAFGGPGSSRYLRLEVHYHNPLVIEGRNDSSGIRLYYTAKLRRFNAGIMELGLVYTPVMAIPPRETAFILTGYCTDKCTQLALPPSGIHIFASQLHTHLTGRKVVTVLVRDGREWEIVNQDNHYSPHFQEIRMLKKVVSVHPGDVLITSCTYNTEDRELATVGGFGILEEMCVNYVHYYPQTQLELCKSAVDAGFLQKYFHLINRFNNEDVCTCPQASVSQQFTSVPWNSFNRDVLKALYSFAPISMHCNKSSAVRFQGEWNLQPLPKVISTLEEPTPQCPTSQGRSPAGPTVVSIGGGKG

[1] = see Teresawa et al.; cited from earlier work
[2] = tested on: spontaneously hypertensive rats; test: mean arterial blood pressure in spontaneously hypertensive rats; format: in vivo; details: 50 mg/kg intraperitoneally, compared to vehicle-treated controls
Procedure: Further, spontaneously hypertensive rats were treated with 1-(2-imidazolylmethyl)-1,3-dihydro-2H-imidazole-2-thione at a dose of 50 mg/kg intraperitoneally, and mean arterial blood pressure was monitored for 250 minutes using indwelling cannulae in the tail arteries. […] The maximal blood pressure reduction was approximately 40 mmHg.

phenylpicolinic acid
inhibitory activity relative to fusaric acid (DBH): twice the inhibitory activity of fusaric acid

CCCCc1ccc(C(=O)O)nc1 [Fusaric acid]
hepatotoxicity [1]: hepatotoxic

S=c1[nH]ccn1Cc1ncc[nH]1 [1-(2-Imidazolylmethyl)-1,3-dihydro-2H-imidazole-2-thione]
time to significant blood pressure reductions following treatment [2]: ≤ 30 min
maximal blood pressure reduction ([2]; mean arterial blood pressure monitored for 250 minutes): approximately 40 mmHg

Reference: patent EP0371730A1, “Dopamine-B-Hydroxylase inhibitors” (SMITHKLINE BEECHAM CORPORATION, priority 1988, dated 1990)
